This note sets out measurements from patent publication US10590143B2, “Herbicidally active (alkynyl-phenyl)-substituted cyclic dione compounds and derivatives thereof” (Syngenta Limited, priority 2013, dated 2020).

Common to all, as to assay: Biological Example 2 glasshouse assay for herbicidal activity
Holding throughout (format): in vivo

The test system of assay [1] is Alopecurus myosuroides (ALOMY). The conditions noted are these: post-emergence, 360 h, 30 g/ha, 14 or 15 DAA, 0.2% v/v X-77, read-out: percentage phytotoxicity ALOMY. On the procedure: (§1) Seeds of a variety of monocotyledonous and dicotyledonous test plants are sown in standard soil in pots. The plants are cultivated for one day (for pre-emergence) or for about 12 days (range=10-13 days) (for post-emergence) under controlled conditions in a glasshouse (warm climate species at 24/18° C., cool climate species at 20/16° C., both at day/night; 16 hours light; 65% humidity).
(§2) An “instant formulation”, known as the “IF50”, containing 50 g/litre (i.e. 5% w/v) of the “technical” (i.e. unformulated) active ingredient is prepared by dissolving the active ingredient in a mixture of organic solvents and emulsifier, details of which are provided in the Table below. This IF50 is then mixed with a small, variable amount of acetone to aid dissolution, before addition of a 0.2% v/v aqueous solution of the adjuvant X-77 (which is a mixture of alkyl aryl polyoxyethylene glycols and free fatty acids in isopropanol, CAS Registry number 11097-66-8), as the aqueous diluent, to form an aqueous spray solution which contains a predetermined concentration of the active ingredient (which varies depending on the application rate of the active ingredient to the plants) and 0.2% v/v of the adjuvant X-77. This aqueous spray solution is then sprayed onto the plants, after one day's cultivation (for pre-emergence) or after about 12 days' cultivation (for post-emergence).
(§3) The test plants are then grown on, in a glasshouse (greenhouse) under controlled conditions (at either 24/18° C. or 20/16° C. (day/night) as mentioned above; 16 hours light; 65% humidity) and are watered twice daily. Either 14 or 15 days after application of the herbicide (14 or 15 DAA) (for post-emergence), or 20 days after application of the herbicide (20 DAA) (for pre-emergence), the test plants are evaluated visually, and an assessed percentage phytotoxicity score is given for each herbicidal application on each plant species (where 100%=total damage to plant; 0%=no damage to plant).
(§4) Some of the typical test plants are as follows: • Cool climate crop plants: Triticum aestivum (TRZAW, winter wheat), Brassica napus (BRSNN, rape, also called oilseed rape or rapeseed), Beta vulgaris (BEAVA, sugarbeet). • Warm climate crop plants: Glycine max (GLXMA, soybean). • Cool climate (“cool season”) grassy monocotyledonous weeds: Alopecurus myosuroides (ALOMY), Avena fatua (AVEFA), Lolium perenne (LOLPE), Poa annua (POAAN), Bromus tectorum (BROTE). • Warm climate (“warm season”) grassy monocotyledonous weeds: Setaria faberi (SETFA), SORVU (Sorghum bicolor (L.) Moench ssp. Bicolor, or Sorghum vulgare Pers.), Digitaria sanguinalis (DIGSA), Echinochloa crus-galli (ECHCG), Brachiaria plantaginea (BRAPL); Zea mays (ZEAMX, corn, maize, e.g. volunteer corn).

The test system of assay [2] is Setaria faberi (SETFA). To be noted: post-emergence, 360 h, 30 g/ha, 14 or 15 DAA, 0.2% v/v X-77, read-out: percentage phytotoxicity SETFA. On the procedure:
as §1, §2, §3, §4

Assay [3] has as its system SORVU (Sorghum bicolor (L.) Moench ssp. Bicolor, or Sorghum vulgare Pers.). The conditions noted are these: post-emergence, 360 h, 30 g/ha, 14 or 15 DAA, 0.2% v/v X-77, read-out: percentage phytotoxicity SORVU. On the procedure: as §1, §2, §3, §4
The test system of assay [4] is Digitaria sanguinalis (DIGSA). To be noted: post-emergence, 360 h, 30 g/ha, 14 or 15 DAA, 0.2% v/v X-77, read-out: percentage phytotoxicity DIGSA. The protocol:
as §1, §2, §3, §4

Assay [5] has as its system Brassica napus (BRSNN, rape). To be noted: Brassica napus, 360 h; post-emergence, 30 g/ha, 14 or 15 DAA, 0.2% v/v X-77; read-out: percentage phytotoxicity BRSNN. The protocol:
as §1, §2, §3, §4

In assay [6] the test system is Glycine max (GLXMA, soybean). The conditions noted are these: post-emergence, 360 h, 30 g/ha, 14 or 15 DAA, 0.2% v/v X-77, read-out: percentage phytotoxicity GLXMA. The protocol: as §1, §2, §3, §4
The test system of assay [7] is Lolium perenne (LOLPE). The conditions noted are these: post-emergence, 30 g/ha, 14 or 15 DAA; for pest or weed control at 30 g/ha: Lolium perenne, 360 h, 0.2% v/v X-77, read-out: percentage phytotoxicity LOLPE. On the procedure:
as §1, §2, §3, §4

Assay [8] concerns Beta vulgaris (BEAVA, sugarbeet). To be noted: post-emergence, 360 h, 30 g/ha, 14 or 15 DAA, 0.2% v/v X-77, read-out: percentage phytotoxicity BEAVA. The protocol: as §1, §2, §3, §4
Assay [9] concerns Zea mays (ZEAMX, corn, maize, e.g. volunteer corn). To be noted: Zea mays, post-emergence, 360 h, 30 g/ha, 14 or 15 DAA, 0.2% v/v X-77, read-out: percentage phytotoxicity ZEAMX. The protocol: as §1, §2, §3, §4
The test system of assay [10] is Brachiaria plantaginea (BRAPL). The conditions noted are these: Urochloa plantaginea, post-emergence, 360 h, 30 g/ha, 14 or 15 DAA, 0.2% v/v X-77, read-out: percentage phytotoxicity BRAPL. The protocol:
as §1, §2, §3, §4

Assay [11] has as its system Triticum aestivum (TRZAW, winter wheat). The conditions noted are these: post-emergence, 360 h, 30 g/ha, 14 or 15 DAA, 0.2% v/v X-77, read-out: percentage phytotoxicity TRZAW. On the procedure:
as §1, §2, §3, §4

The test system of assay [12] is Echinochloa crus-galli (ECHCG). The conditions noted are these: Echinochloa crus-galli, post-emergence, 360 h, 30 g/ha, 14 or 15 DAA, 0.2% v/v X-77, read-out: percentage phytotoxicity ECHCG. On the procedure:
as §1, §2, §3, §4

The test system of assay [13] is Avena fatua (AVEFA). The conditions noted are these: post-emergence, 360 h, 30 g/ha, 14 or 15 DAA, 0.2% v/v X-77, read-out: percentage phytotoxicity AVEFA. On the procedure: as §1, §2, §3, §4

As to `CCc1cc(C)cc(CC)c1C1C(=O)C2CCC(C2)C1=O` (stereo not drawn) [Compound X10, reference compound], the pest or weed control at 30 g/ha was 80% in [1]; 100% in assay [2]; 60% in assay [3]; 100% in assay [4]; 70% in assay [7]; 80% in assay [9]. The pest or weed control at 30 g/ha in [10] came to 80%. Moreover, the plant injury at 30 g/ha in assay [5], in assay [6] and in assay [8] was 0% each time. Besides, the “percentage phytotoxicity LOLPE” value in assay [7] (0.2% v/v X-77) amounted to 70%.

`Cc1cc(C)c(C2C(=O)C3CCC(C3)C2=O)c(C)c1` (stereo not drawn) [Compound X9, reference compound]: the plant injury at 30 g/ha in assay [11], in [5] and in [6] was 0% each time. Besides, the pest or weed control at 30 g/ha in assay [1] turned out to be 0%; in assay [2], 70%; in assay [4], 30%; in assay [12] it was 20%; in assay [13], 0%; in [7], 0%. Besides, the pest or weed control at 30 g/ha in assay [10] is 70%.
